# Patent publication US20260027116A1, “Methods of Treating Chronic Graft-Versus-Host Disease Following Allogeneic Hematopoietic Stem Cell Transplantation” (Kadmon Corporation, LLC, priority 2022, published 2026)
# System: lung function
# Test: Example 1: percent predicted HGB corrected DLco change from baseline
# Assay type: in vivo, human
# Details: mean (SD)
# Excerpt: Change From Baseline in Percent Predicted Hemoglobin (HGB) Corrected Diffusing Capacity of Lung for Carbon Monoxide (DLco) at Each Specified Time Points. DLco is a measurement of the ability of the lungs to transfer gases from the air to the blood. Change from baseline in diffusing capacity of the lung for carbon monoxide (percent predicted hemoglobin level corrected) was reported for this measure. Baseline value was defined as valid and last non-missing value obtained within 28 days prior to participant receiving first study medication. EOT visit was performed within 3 days after the participant's last dose of study drug. […] Analysis was performed on mITT population. Here, ‘number analyzed’=participants with available data for each specified category. Here, ‘O’ in the number analyzed field signifies that none of the participants were available for the analysis at the specified time points.
smiles,measurement,setting,value
"CC(C)NC(=O)COc1cccc(-c2nc(Nc3ccc4[nH]ncc4c3)c3ccccc3n2)c1 [Belumosudil, 2-{3-[4-(1H-indazol-5-ylamino)-2-quinazolinyl]phenoxy}-N-(propan-2-yl) acetamide]",Change From Baseline in Percent Predicted Hemoglobin (HGB) Corrected Diffusing Capacity of Lung for Carbon Monoxide (DLco),"Cohort 2: 200 mg BID, Cycle 15, Day 1",1.125 (5.927) Percent Predicted HGB Corrected DLco
same,Change From Baseline in Percent Predicted Hemoglobin (HGB) Corrected Diffusing Capacity of Lung for Carbon Monoxide (DLco),"Cohort 2: 200 mg BID, Cycle 16, Day 1",−6.618 (15.443) Percent Predicted HGB Corrected DLco
same,Change From Baseline in Percent Predicted Hemoglobin (HGB) Corrected Diffusing Capacity of Lung for Carbon Monoxide (DLco),"Cohort 2: 200 mg BID, Cycle 17, Day 1",8.458 (6.229) Percent Predicted HGB Corrected DLco
same,Change From Baseline in Percent Predicted Hemoglobin (HGB) Corrected Diffusing Capacity of Lung for Carbon Monoxide (DLco),"Cohort 2: 200 mg BID, Cycle 18, Day 1",15.543 (11.753) Percent Predicted HGB Corrected DLco
same,Change From Baseline in Percent Predicted Hemoglobin (HGB) Corrected Diffusing Capacity of Lung for Carbon Monoxide (DLco),"Cohort 2: 200 mg BID, Cycle 19, Day 1",1.824 (8.539) Percent Predicted HGB Corrected DLco
same,Change From Baseline in Percent Predicted Hemoglobin (HGB) Corrected Diffusing Capacity of Lung for Carbon Monoxide (DLco),"Cohort 2: 200 mg BID, Cycle 20, Day 1",−14.692 (—) Percent Predicted HGB Corrected DLco
same,Change From Baseline in Percent Predicted Hemoglobin (HGB) Corrected Diffusing Capacity of Lung for Carbon Monoxide (DLco),"Cohort 2: 200 mg BID, Cycle 21, Day 1",−10.661 (—) Percent Predicted HGB Corrected DLco
same,Change From Baseline in Percent Predicted Hemoglobin (HGB) Corrected Diffusing Capacity of Lung for Carbon Monoxide (DLco),"Cohort 2: 200 mg BID, Cycle 22, Day 1",3.347 (3.560) Percent Predicted HGB Corrected DLco
same,Change From Baseline in Percent Predicted Hemoglobin (HGB) Corrected Diffusing Capacity of Lung for Carbon Monoxide (DLco),"Cohort 2: 200 mg BID, Cycle 23, Day 1",−15.184 (20.181) Percent Predicted HGB Corrected DLco
same,Change From Baseline in Percent Predicted Hemoglobin (HGB) Corrected Diffusing Capacity of Lung for Carbon Monoxide (DLco),"Cohort 2: 200 mg BID, Cycle 24, Day 1",−18.095 (—) Percent Predicted HGB Corrected DLco
same,Change From Baseline in Percent Predicted Hemoglobin (HGB) Corrected Diffusing Capacity of Lung for Carbon Monoxide (DLco),"Cohort 2: 200 mg BID, Cycle 25, Day 1",6.289 (2.469) Percent Predicted HGB Corrected DLco
same,Change From Baseline in Percent Predicted Hemoglobin (HGB) Corrected Diffusing Capacity of Lung for Carbon Monoxide (DLco),"Cohort 2: 200 mg BID, Cycle 27, Day 1",−9.914 (15.387) Percent Predicted HGB Corrected DLco
same,Change From Baseline in Percent Predicted Hemoglobin (HGB) Corrected Diffusing Capacity of Lung for Carbon Monoxide (DLco),"Cohort 2: 200 mg BID, Cycle 29, Day 1",−18.814 (24.960) Percent Predicted HGB Corrected DLco
same,Change From Baseline in Percent Predicted Hemoglobin (HGB) Corrected Diffusing Capacity of Lung for Carbon Monoxide (DLco),"Cohort 2: 200 mg BID, Cycle 31, Day 1",−0.800 (17.528) Percent Predicted HGB Corrected DLco
same,Change From Baseline in Percent Predicted Hemoglobin (HGB) Corrected Diffusing Capacity of Lung for Carbon Monoxide (DLco),"Cohort 2: 200 mg BID, Cycle 33, Day 1",−5.962 (10.550) Percent Predicted HGB Corrected DLco
same,Change From Baseline in Percent Predicted Hemoglobin (HGB) Corrected Diffusing Capacity of Lung for Carbon Monoxide (DLco),"Cohort 2: 200 mg BID, Cycle 35, Day 1",−0.426 (6.677) Percent Predicted HGB Corrected DLco
same,Change From Baseline in Percent Predicted Hemoglobin (HGB) Corrected Diffusing Capacity of Lung for Carbon Monoxide (DLco),"Cohort 2: 200 mg BID, Cycle 37, Day 1",−19.228 (—) Percent Predicted HGB Corrected DLco
same,Change From Baseline in Percent Predicted Hemoglobin (HGB) Corrected Diffusing Capacity of Lung for Carbon Monoxide (DLco),"Cohort 2: 200 mg BID, Cycle 39, Day 1",−6.813 (12.810) Percent Predicted HGB Corrected DLco
same,Change From Baseline in Percent Predicted Hemoglobin (HGB) Corrected Diffusing Capacity of Lung for Carbon Monoxide (DLco),"Cohort 2: 200 mg BID, Cycle 43, Day 1",8.775 (—) Percent Predicted HGB Corrected DLco
same,Change From Baseline in Percent Predicted Hemoglobin (HGB) Corrected Diffusing Capacity of Lung for Carbon Monoxide (DLco),"Cohort 2: 200 mg BID, EOT",0.985 (5.919) Percent Predicted HGB Corrected DLco
same,Change From Baseline in Percent Predicted Hemoglobin (HGB) Corrected Diffusing Capacity of Lung for Carbon Monoxide (DLco),"Cohort 3: 400 mg QD, Cycle 2, Day 1",−5.243 (9.830) Percent Predicted HGB Corrected DLco
same,Change From Baseline in Percent Predicted Hemoglobin (HGB) Corrected Diffusing Capacity of Lung for Carbon Monoxide (DLco),"Cohort 3: 400 mg QD, Cycle 3, Day 1",−3.928 (9.492) Percent Predicted HGB Corrected DLco
same,Change From Baseline in Percent Predicted Hemoglobin (HGB) Corrected Diffusing Capacity of Lung for Carbon Monoxide (DLco),"Cohort 3: 400 mg QD, Cycle 4, Day 1",0.278 (9.683) Percent Predicted HGB Corrected DLco
same,Change From Baseline in Percent Predicted Hemoglobin (HGB) Corrected Diffusing Capacity of Lung for Carbon Monoxide (DLco),"Cohort 3: 400 mg QD, Cycle 5, Day 1",−4.111 (9.138) Percent Predicted HGB Corrected DLco
same,Change From Baseline in Percent Predicted Hemoglobin (HGB) Corrected Diffusing Capacity of Lung for Carbon Monoxide (DLco),"Cohort 3: 400 mg QD, Cycle 6, Day 1",−3.143 (10.385) Percent Predicted HGB Corrected DLco
same,Change From Baseline in Percent Predicted Hemoglobin (HGB) Corrected Diffusing Capacity of Lung for Carbon Monoxide (DLco),"Cohort 3: 400 mg QD, Cycle 7, Day 1",−4.275 (11.464) Percent Predicted HGB Corrected DLco
same,Change From Baseline in Percent Predicted Hemoglobin (HGB) Corrected Diffusing Capacity of Lung for Carbon Monoxide (DLco),"Cohort 3: 400 mg QD, Cycle 8, Day 1",−3.787 (11.983) Percent Predicted HGB Corrected DLco
same,Change From Baseline in Percent Predicted Hemoglobin (HGB) Corrected Diffusing Capacity of Lung for Carbon Monoxide (DLco),"Cohort 3: 400 mg QD, Cycle 9, Day 1",−2.540 (11.897) Percent Predicted HGB Corrected DLco
same,Change From Baseline in Percent Predicted Hemoglobin (HGB) Corrected Diffusing Capacity of Lung for Carbon Monoxide (DLco),"Cohort 3: 400 mg QD, Cycle 10, Day 1",1.328 (8.887) Percent Predicted HGB Corrected DLco
same,Change From Baseline in Percent Predicted Hemoglobin (HGB) Corrected Diffusing Capacity of Lung for Carbon Monoxide (DLco),"Cohort 3: 400 mg QD, Cycle 11, Day 1",−2.720 (10.920) Percent Predicted HGB Corrected DLco
same,Change From Baseline in Percent Predicted Hemoglobin (HGB) Corrected Diffusing Capacity of Lung for Carbon Monoxide (DLco),"Cohort 3: 400 mg QD, Cycle 12, Day 1",−1.378 (6.364) Percent Predicted HGB Corrected DLco
same,Change From Baseline in Percent Predicted Hemoglobin (HGB) Corrected Diffusing Capacity of Lung for Carbon Monoxide (DLco),"Cohort 3: 400 mg QD, Cycle 13, Day 1",2.091 (13.290) Percent Predicted HGB Corrected DLco
same,Change From Baseline in Percent Predicted Hemoglobin (HGB) Corrected Diffusing Capacity of Lung for Carbon Monoxide (DLco),"Cohort 3: 400 mg QD, Cycle 14, Day 1",0.309 (11.651) Percent Predicted HGB Corrected DLco
same,Change From Baseline in Percent Predicted Hemoglobin (HGB) Corrected Diffusing Capacity of Lung for Carbon Monoxide (DLco),"Cohort 3: 400 mg QD, Cycle 15, Day 1",−5.309 (11.514) Percent Predicted HGB Corrected DLco
same,Change From Baseline in Percent Predicted Hemoglobin (HGB) Corrected Diffusing Capacity of Lung for Carbon Monoxide (DLco),"Cohort 3: 400 mg QD, Cycle 16, Day 1",−6.840 (15.053) Percent Predicted HGB Corrected DLco
same,Change From Baseline in Percent Predicted Hemoglobin (HGB) Corrected Diffusing Capacity of Lung for Carbon Monoxide (DLco),"Cohort 3: 400 mg QD, Cycle 17, Day 1",−10.865 (13.346) Percent Predicted HGB Corrected DLco
same,Change From Baseline in Percent Predicted Hemoglobin (HGB) Corrected Diffusing Capacity of Lung for Carbon Monoxide (DLco),"Cohort 3: 400 mg QD, Cycle 18, Day 1",−3.174 (3.106) Percent Predicted HGB Corrected DLco
same,Change From Baseline in Percent Predicted Hemoglobin (HGB) Corrected Diffusing Capacity of Lung for Carbon Monoxide (DLco),"Cohort 3: 400 mg QD, Cycle 19, Day 1",−2.020 (2.436) Percent Predicted HGB Corrected DLco
same,Change From Baseline in Percent Predicted Hemoglobin (HGB) Corrected Diffusing Capacity of Lung for Carbon Monoxide (DLco),"Cohort 3: 400 mg QD, Cycle 20, Day 1",−13.517 (5.936) Percent Predicted HGB Corrected DLco
same,Change From Baseline in Percent Predicted Hemoglobin (HGB) Corrected Diffusing Capacity of Lung for Carbon Monoxide (DLco),"Cohort 3: 400 mg QD, Cycle 21, Day 1",−12.354 (12.800) Percent Predicted HGB Corrected DLco
same,Change From Baseline in Percent Predicted Hemoglobin (HGB) Corrected Diffusing Capacity of Lung for Carbon Monoxide (DLco),"Cohort 3: 400 mg QD, Cycle 22, Day 1",−17.222 (16.947) Percent Predicted HGB Corrected DLco
same,Change From Baseline in Percent Predicted Hemoglobin (HGB) Corrected Diffusing Capacity of Lung for Carbon Monoxide (DLco),"Cohort 3: 400 mg QD, Cycle 23, Day 1",−2.219 (10.614) Percent Predicted HGB Corrected DLco
same,Change From Baseline in Percent Predicted Hemoglobin (HGB) Corrected Diffusing Capacity of Lung for Carbon Monoxide (DLco),"Cohort 3: 400 mg QD, Cycle 24, Day 1",−11.430 (—) Percent Predicted HGB Corrected DLco
same,Change From Baseline in Percent Predicted Hemoglobin (HGB) Corrected Diffusing Capacity of Lung for Carbon Monoxide (DLco),"Cohort 3: 400 mg QD, Cycle 25, Day 1",−13.392 (—) Percent Predicted HGB Corrected DLco
same,Change From Baseline in Percent Predicted Hemoglobin (HGB) Corrected Diffusing Capacity of Lung for Carbon Monoxide (DLco),"Cohort 3: 400 mg QD, Cycle 27, Day 1",−11.154 (—) Percent Predicted HGB Corrected DLco
same,Change From Baseline in Percent Predicted Hemoglobin (HGB) Corrected Diffusing Capacity of Lung for Carbon Monoxide (DLco),"Cohort 3: 400 mg QD, Cycle 29, Day 1",8.613 (—) Percent Predicted HGB Corrected DLco
same,Change From Baseline in Percent Predicted Hemoglobin (HGB) Corrected Diffusing Capacity of Lung for Carbon Monoxide (DLco),"Cohort 3: 400 mg QD, Cycle 31, Day 1",10.833 (—) Percent Predicted HGB Corrected DLco
same,Change From Baseline in Percent Predicted Hemoglobin (HGB) Corrected Diffusing Capacity of Lung for Carbon Monoxide (DLco),"Cohort 3: 400 mg QD, Cycle 35, Day 1",5.088 (—) Percent Predicted HGB Corrected DLco
same,Change From Baseline in Percent Predicted Hemoglobin (HGB) Corrected Diffusing Capacity of Lung for Carbon Monoxide (DLco),"Cohort 3: 400 mg QD, Cycle 36, Day 1",10.372 (—) Percent Predicted HGB Corrected DLco
same,Change From Baseline in Percent Predicted Hemoglobin (HGB) Corrected Diffusing Capacity of Lung for Carbon Monoxide (DLco),"Cohort 3: 400 mg QD, Cycle 39, Day 1",5.902 (—) Percent Predicted HGB Corrected DLco
same,Change From Baseline in Percent Predicted Hemoglobin (HGB) Corrected Diffusing Capacity of Lung for Carbon Monoxide (DLco),"Cohort 3: 400 mg QD, EOT",−10.371 (14.208) Percent Predicted HGB Corrected DLco
